According to PMC4916434, “Evaluation of the inhibition potential of plumbagin against cytochrome P450 using LC-MS/MS and cocktail approach” (Scientific Reports, 2016):

How the values were obtained:
[1] = biological target: T1, CYP2D1 (Rattus norvegicus, UniProt P10633); assay type: in vitro ADME
T1 construct: consisting of pooled HLMs (0.5 mg/ml) or RLMs (1 mg/ml) and an NADPH-regenerating system; from tissue; host or cells: rat liver microsomes prepared in house
T1 sequence (P10633 1-504): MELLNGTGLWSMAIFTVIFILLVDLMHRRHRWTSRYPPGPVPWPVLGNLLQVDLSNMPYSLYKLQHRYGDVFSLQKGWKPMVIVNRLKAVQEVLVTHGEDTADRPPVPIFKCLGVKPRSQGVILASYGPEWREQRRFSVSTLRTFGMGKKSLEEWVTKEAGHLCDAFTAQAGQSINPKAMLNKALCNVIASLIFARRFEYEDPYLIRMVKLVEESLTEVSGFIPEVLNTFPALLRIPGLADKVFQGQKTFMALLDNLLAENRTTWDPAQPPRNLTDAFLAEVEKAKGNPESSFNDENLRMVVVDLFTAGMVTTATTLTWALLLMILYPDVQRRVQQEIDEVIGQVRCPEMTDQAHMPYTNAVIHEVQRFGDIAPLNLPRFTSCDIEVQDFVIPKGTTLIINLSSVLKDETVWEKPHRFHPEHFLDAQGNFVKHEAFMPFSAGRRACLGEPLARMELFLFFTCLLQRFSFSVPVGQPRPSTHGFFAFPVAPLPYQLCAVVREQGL
Method: (§1) In this study, the rats were fasted overnight and killed by cervical dislocation before removal of the liver. The liver was excised, rinsed with ice-cold saline (0.9% NaCl w/v), weighed and homogenized in a […] Tris/KCl buffer (pH 7.4). Subsequently, the homogenate was centrifuged at 10,000 × g at 4 °C for 30 min. The supernatant was then centrifuged at 105,000 × g at 4 °C for 60 min. The pellet was reconstituted with […] Tris/KCl buffer (pH 7.4) and stored at −150 °C until use. The protein concentration of the liver microsomes was determined by a protein quantitative assay using bicinchoninic acid[22].
(§2) Microsomal incubation was carried out at 37 °C in a mixture of 200 μl in 0.05 M Tris/HCl buffer (pH 7.4) consisting of pooled HLMs (0.5 mg/ml) or RLMs (1 mg/ml) and an NADPH-regenerating system including MgCl2 (5 mM), G6P (10 mM), G6PDH (0.4 U/ml) and NADP (1 mM). Substrates were added into the incubation mixture and obtained the final concentrations (10 μM phenacetin for CYP1A2, 20 μM bupropion for CYP2B1/6, 20 μM tolbutamide for CYP2C9/11, 5 μM dextromethorphan for CYP2D1/6, 20 μM chlorzoxazone for CYP2E1 and 10 μM midazolam for CYP3A2/4), which were close to Km respectively. The proportion of organic solvent was not higher than 1% (v/v) in the incubation mixture. After pre-incubation for 5 min, the reaction was initiated by addition of NADP. Incubations were performed for 20 min, stopped by adding 200 μl ice-cold acetonitrile. And then 20 μl internal standard solution was added (3-acetamidophenol 2 μg/ml, chlorpropamide 2 μg/ml and mebendazole 2 μg/ml). The solution was mixed thoroughly for 3 min and centrifuged for 10 min at 16,000 × g at 4 °C. The supernatant (60 μl) was transferred to autosampler vials, and 2 μl was injected into LC-MS/MS system.
(§3) The IC50 (concentration of inhibitor to cause 50% inhibition of original enzyme activity) values were determined with the same incubation condition above. The specific concentrations of plumbagin were ranged from 0.1 μM to 50 μM. The IC50 values were calculated by plotting relative activities over the logarithm of plumbagin concentrations using GraphPad Prism 5.0 (GraphPad software Inc., CA, USA).
(§4) Cocktail probe substrates were then added and incubated for 20 min. Reactions were stopped with 200 μl ice-cold acetonitrile. The samples were treated according to the microsomal incubation method and then injected into LC-MS/MS for analysis.
(§5) Kinetic studies were performed for determining the types of inhibition on CYP by plumbagin. Pooled HLMs (0.5 mg/ml) or RLMs (1 mg/ml) with plumbagin (1 μM, 2 μM, 5 μM and 10 μM) were incubated in 0.05 M Tris/HCl buffer (pH 7.4) for 20 min at 37 °C. A series of concentrations for cocktail probe substrates were used: 2.5–20 μM phenacetin for CYP1A2; 5–40 μM bupropion for CYP2B1/6; 5–40 μM tolbutamide for CYP2C9/11; 1.25–10 μM dextromethorphan for CYP2D1/6; 5–40 μM chlorzoxazone for CYP2E1; 2.5–80 μM midazolam for CYP3A2; and 0.625–5 μM midazolam for CYP3A4. Enzyme kinetics as well as statistical analysis were performed using GraphPad Prism 5.0.
(§6) All data were presented as mean ± SD. The IC50 values were fitted by non-linear regression analysis using GraphPad Prism 5.0. The kinetic parameters were obtained by fitting velocity data to kinetic models (Michaelis-Menten) using GraphPad Prism 5.0. The Lineweaver-Burk Plot (the reciprocal of reaction velocities versus the reciprocal of substrates concentrations) was used to determine the quality of fit to a specific inhibition model. The inhibition constant (Ki) was obtained by a secondary plot using the slopes of the primary Lineweaver-Burk Plot (Km/Vmax versus inhibitor concentrations). αKi was obtained from a secondary plot using the y-intercepts of the Lineweaver-Burk plot (1/Vmax versus inhibitor concentrations). All results were analyzed in quadruplicate. One-way analysis of variance was used to estimate the significance of differences. […]

[2] = biological target: T2, CYP3A2 (Rattus norvegicus, UniProt P05183); assay type: in vitro ADME
T2 construct: consisting of pooled HLMs (0.5 mg/ml) or RLMs (1 mg/ml) and an NADPH-regenerating system; from tissue; host or cells: rat liver microsomes prepared in house
T2 sequence (P05183 1-504): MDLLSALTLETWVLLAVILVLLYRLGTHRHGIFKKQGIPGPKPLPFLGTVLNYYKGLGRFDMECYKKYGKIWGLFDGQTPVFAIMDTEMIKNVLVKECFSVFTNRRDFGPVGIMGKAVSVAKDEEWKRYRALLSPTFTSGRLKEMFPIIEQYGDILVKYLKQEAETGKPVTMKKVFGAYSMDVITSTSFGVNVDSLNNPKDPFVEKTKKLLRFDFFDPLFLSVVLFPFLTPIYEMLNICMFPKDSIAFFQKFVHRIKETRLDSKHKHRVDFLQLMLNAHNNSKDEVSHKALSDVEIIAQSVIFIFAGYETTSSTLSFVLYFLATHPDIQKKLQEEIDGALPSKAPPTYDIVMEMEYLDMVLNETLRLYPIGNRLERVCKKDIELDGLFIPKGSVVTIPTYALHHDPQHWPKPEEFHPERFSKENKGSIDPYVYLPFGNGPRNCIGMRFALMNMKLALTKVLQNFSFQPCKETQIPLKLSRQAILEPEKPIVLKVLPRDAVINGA
Method: as §1, §2, §3, §4, §5, §6

CC1=CC(=O)c2c(O)cccc2C1=O [plumbagin, 5-hydroxy-2-methyl-1,4-naphthoquinone]
IC50 [1]: 6.17 µM | Ki [1]: 9.49 µM | Type of inhibition [1]: mixed-type | α [1]: 0.69 | αKi [1]: 13.79 µM | IC50 [2]: 8.47 µM
